Consider three compounds from patent US9107446B2, “Solubilizates of preservatives and method for producing the same” (AQUANOVA AG, priority 2006, dated 2015).

Where two headings read alike, the source gives them in different places.

The subject of one data set is bacteria. The conditions noted are these: 500 mg added to nutrient solution with agar; about three weeks contact time.
For data set [1] the following is noted: in water; cited from earlier work.
The conditions of data set [2]: cited from earlier work.
Another data set concerns Saccharomyces cerevisae. The conditions noted are these: pH 6.2, room temperature; for Bacteria Count: 0.4 ml yeast solution.

For the compound `C/C=C/C=C/C(=O)[O-].[K+]` [Potassium Sorbate], the Bacteria Count in the data set on bacteria is given as 1.6×10^10. Also, in data set [1], the “Solubility, Water” value was 138 g/100 g.

For the compound `C/C=C/C=C/C(=O)O` [Sorbic Acid], the “Anion, dis.” value in data set [2] (pH Value 3) is 1.7%; in data set [2] (pH Value 4.0) it was 14.7%; in data set [2] (pH Value 5.0), 63%.

`O=C(O)c1ccccc1` [Benzoic Acid]: the “Bacteria Count” value in the data set on Saccharomyces cerevisae (Benzoic Acid Concentration 10 ppm, After 3 days) is 1,650,000/ml; with Saccharomyces cerevisae (Benzoic Acid Concentration 10 ppm, After 7 days), 1,200,000/ml; in the data set with Saccharomyces cerevisae (Benzoic Acid Concentration 10 ppm, After 15 days) it was 800,000/ml; with Saccharomyces cerevisae (Benzoic Acid Concentration 10 ppm, After 22 days), 1,100,000/ml; with Saccharomyces cerevisae (Benzoic Acid Concentration 10 ppm, After 29 days), 1,300,000/ml; in the data set on Saccharomyces cerevisae (Benzoic Acid Concentration 10 ppm, Initial) it was 2,900/ml. The “Bacteria Count” value with Saccharomyces cerevisae (Benzoic Acid Concentration 50 ppm, After 3 days) is 1,900,000/ml; in the data set with Saccharomyces cerevisae (Benzoic Acid Concentration 50 ppm, After 7 days) it was 1,100,000/ml; with Saccharomyces cerevisae (Benzoic Acid Concentration 50 ppm, After 15 days), 900,000/ml; with Saccharomyces cerevisae (Benzoic Acid Concentration 50 ppm, After 22 days) it was 930,000/ml; with Saccharomyces cerevisae (Benzoic Acid Concentration 50 ppm, After 29 days) it was 1,300,000/ml; in the data set with Saccharomyces cerevisae (Benzoic Acid Concentration 50 ppm, Initial) it was 2,900/ml. Further, the “Bacteria Count” value with Saccharomyces cerevisae (Benzoic Acid Concentration 100 ppm, After 3 days) is reported as 670,000/ml; in the data set with Saccharomyces cerevisae (Benzoic Acid Concentration 100 ppm, After 7 days), 530,000/ml; in the data set with Saccharomyces cerevisae (Benzoic Acid Concentration 100 ppm, After 15 days) it was 600,000/ml; with Saccharomyces cerevisae (Benzoic Acid Concentration 100 ppm, After 22 days), 1,200,000/ml; with Saccharomyces cerevisae (Benzoic Acid Concentration 100 ppm, After 29 days) it was 900,000/ml; in the data set on Saccharomyces cerevisae (Benzoic Acid Concentration 100 ppm, Initial), 2,900/ml. Besides, the “Bacteria Count” value in the data set with Saccharomyces cerevisae (Benzoic Acid Concentration 200 ppm, After 3 days) was 510,000/ml; with Saccharomyces cerevisae (Benzoic Acid Concentration 200 ppm, After 7 days), 430,000/ml; in the data set on Saccharomyces cerevisae (Benzoic Acid Concentration 200 ppm, After 15 days), 350,000/ml; in the data set on Saccharomyces cerevisae (Benzoic Acid Concentration 200 ppm, After 22 days), 400,000/ml; with Saccharomyces cerevisae (Benzoic Acid Concentration 200 ppm, After 29 days), 400,000/ml; in the data set on Saccharomyces cerevisae (Benzoic Acid Concentration 200 ppm, Initial), 2,900/ml. In addition, the “Bacteria Count” value with Saccharomyces cerevisae (Benzoic Acid Concentration 300 ppm, After 3 days) is 630,000/ml; with Saccharomyces cerevisae (Benzoic Acid Concentration 300 ppm, After 7 days), 400,000/ml; in the data set on Saccharomyces cerevisae (Benzoic Acid Concentration 300 ppm, After 15 days), 520,000/ml; in the data set with Saccharomyces cerevisae (Benzoic Acid Concentration 300 ppm, After 22 days), 250,000/ml; in the data set on Saccharomyces cerevisae (Benzoic Acid Concentration 300 ppm, After 29 days), 230,000/ml; in the data set with Saccharomyces cerevisae (Benzoic Acid Concentration 300 ppm, Initial), 2,900/ml. Further, the “Bacteria Count” value in the data set with Saccharomyces cerevisae (Benzoic Acid Concentration 500 ppm, After 3 days) is 700 mL⁻¹; with Saccharomyces cerevisae (Benzoic Acid Concentration 500 ppm, After 7 days) it was 55,000/ml; with Saccharomyces cerevisae (Benzoic Acid Concentration 500 ppm, After 15 days), 230,000/ml; in the data set on Saccharomyces cerevisae (Benzoic Acid Concentration 500 ppm, After 22 days), 120,000/ml; in the data set on Saccharomyces cerevisae (Benzoic Acid Concentration 500 ppm, After 29 days) it was 43,000/ml; in the data set on Saccharomyces cerevisae (Benzoic Acid Concentration 500 ppm, Initial) it was 2,900/ml. Moreover, the “yeast growth (in words)” value with Saccharomyces cerevisae (benzoic acid concentration of 500 ppm, after 29 days of contact time) is “high yeast growth”. Also, the “Anion, dis.” value in data set [2] (pH Value 3) is listed as 6%; in data set [2] (pH Value 3.5), 16.7%; in data set [2] (pH Value 4.0), 38.7%; in data set [2] (pH Value 5.0), 86.5%.
